Experimental data as given in ChEMBL document CHEMBL1255495, “Experimental conditions that enhance potency of an antibacterial oligo-acyl-lysyl” (2010).
Converted amounts (≈) assume the structure as drawn. The source made the active and inactive calls. The calls are words filed in the database; no cut-off is given here.

Legend:
[1] = test system: Staphylococcus aureus; assay: Antibacterial activity against Staphylococcus aureus ATCC 29213 at pH 7 after 24 hrs by microdilution method; format: functional; details: ATCC 29213, 24 h
[2] = test system: Escherichia coli; assay: Antibacterial activity against Escherichia coli O157:H7 ATCC 43894 after 24 hrs by microdilution method in presence of 170 mM NaCl; format: functional; details: O157:H7 ATCC 43894, 24 h
[3] = test system: Staphylococcus aureus; assay: Antibacterial against methicillin-resistant Staphylococcus aureus isolate 15903 at pH 8.5 after 24 hrs at 48 degC by microdilution method in presence of 85 mM NaCl; format: functional; details: isolate 15903, 24 h
[4] = test system: Escherichia coli; assay: Antibacterial activity against Escherichia coli O157:H7 ATCC 43894 after 24 hrs by microdilution method in presence of 20 mM MgCl2; format: functional; details: O157:H7 ATCC 43894, 24 h
[5] = test system: Escherichia coli; assay: Antibacterial activity against Escherichia coli O157:H7 ATCC 43894 assessed as reduction in bacterial population at 0.01 to 10 uM up to 15 mins by time-kill assay; format: functional
[6] = test system: Listeria monocytogenes; assay: Antibacterial activity against Listeria monocytogenes ATCC 19115 at pH 5.5 after 24 hrs by microdilution method; format: functional; details: ATCC 19115, 24 h
[7] = test system: Escherichia coli; assay: Antibacterial against Escherichia coli O157:H7 ATCC 43894 at pH 8.5 after 24 hrs at 48 degC by microdilution method in presence of 85 mM NaCl; format: functional; details: O157:H7 ATCC 43894, 24 h
[8] = test system: Listeria monocytogenes; assay: Antibacterial against Listeria monocytogenes ATCC 19115 at pH 8.5 after 24 hrs at 48 degC by microdilution method in presence of 85 mM NaCl; format: functional; details: ATCC 19115, 24 h
[9] = test system: Listeria monocytogenes; assay: Antibacterial activity against Listeria monocytogenes ATCC 19115 at pH 3.5 after 24 hrs by microdilution method; format: functional; details: ATCC 19115, 24 h
[10] = test system: Listeria monocytogenes; assay: Antibacterial activity against Listeria monocytogenes ATCC 19115 after 24 hrs at 25 degC by microdilution method; format: functional; details: ATCC 19115, 24 h
[11] = test system: Staphylococcus aureus; assay: Ratio of MIC for methicillin-resistant Staphylococcus aureus isolate 15903 in presence of 85 mM NaCl to MIC for methicillin-resistant Staphylococcus aureus isolate 15903 at pH 8.5 after 24 hrs at 48 degC in presence of 85 mM NaCl; format: functional
[12] = test system: Listeria monocytogenes; assay: Antibacterial activity against Listeria monocytogenes ATCC 19115 after 24 hrs by microdilution method in presence of 40 mM MgCl2; format: functional; details: ATCC 19115, 24 h
[13] = test system: Listeria monocytogenes; assay: Antibacterial activity against Listeria monocytogenes ATCC 19115 at pH 7 after 24 hrs by microdilution method; format: functional; details: ATCC 19115, 24 h
[14] = test system: Escherichia coli; assay: Antibacterial activity against Escherichia coli O157:H7 ATCC 43894 after 72 hrs at 4 degC by microdilution method; format: functional; details: O157:H7 ATCC 43894, 72 h
[15] = test system: Escherichia coli; assay: Antibacterial activity against Escherichia coli O157:H7 ATCC 43894 after 24 hrs by microdilution method in presence of 260 mM NaCl; format: functional; details: O157:H7 ATCC 43894, 24 h
[16] = test system: Staphylococcus aureus; assay: Antibacterial activity against methicillin-resistant Staphylococcus aureus isolate 15903 after 24 hrs by microdilution method in presence of 85 mM NaCl; format: functional; details: isolate 15903, 24 h
[17] = test system: Staphylococcus aureus; assay: Antibacterial activity against methicillin-resistant Staphylococcus aureus ATCC 43300 at pH 7 after 24 hrs by microdilution method; format: functional; details: ATCC 43300, 24 h
[18] = test system: Listeria monocytogenes; assay: Antibacterial activity against Listeria monocytogenes ATCC 19115 after 24 hrs by microdilution method in presence of 85 mM NaCl; format: functional; details: ATCC 19115, 24 h
[19] = test system: Escherichia coli; assay: Antibacterial activity against Escherichia coli O157:H7 ATCC 43894 after 24 hrs by microdilution method in presence of 40 mM MgCl2; format: functional; details: O157:H7 ATCC 43894, 24 h
[20] = test system: Listeria monocytogenes; assay: Antibacterial activity against Listeria monocytogenes ATCC 19115 after 24 hrs by microdilution method in presence of 160 mM MgCl2; format: functional; details: ATCC 19115, 24 h
[21] = test system: Listeria monocytogenes; assay: Antibacterial activity against Listeria monocytogenes ATCC 19115 after 24 hrs at 48 degC by microdilution method; format: functional; details: ATCC 19115, 24 h
[22] = test system: Escherichia coli; assay: Antibacterial activity against Escherichia coli O157:H7 ATCC 43894 after 24 hrs by microdilution method in presence of 1030 mM NaCl; format: functional; details: O157:H7 ATCC 43894, 24 h
[23] = test system: Listeria monocytogenes; assay: Antibacterial activity against Listeria monocytogenes ATCC 19115 at pH 8.5 after 24 hrs by microdilution method; format: functional; details: ATCC 19115, 24 h
[24] = test system: Listeria monocytogenes; assay: Antibacterial activity against Listeria monocytogenes ATCC 19115 after 24 hrs by microdilution method in presence of 260 mM NaCl; format: functional; details: ATCC 19115, 24 h
[25] = test system: Listeria monocytogenes; assay: Antibacterial activity against Listeria monocytogenes ATCC 19115 after 24 hrs by microdilution method in presence of 80 mM MgCl2; format: functional; details: ATCC 19115, 24 h
[26] = test system: Listeria monocytogenes; assay: Antibacterial activity against Listeria monocytogenes ATCC 19115 after 24 hrs at 37 degC by microdilution method; format: functional; details: ATCC 19115, 24 h
[27] = test system: Listeria monocytogenes; assay: Antibacterial activity against Listeria monocytogenes ATCC 19115 after 72 hrs at 4 degC by microdilution method; format: functional; details: ATCC 19115, 72 h
[28] = test system: Escherichia coli; assay: Antibacterial activity against Escherichia coli O157:H7 ATCC 43894 at pH 5.5 after 24 hrs by microdilution method; format: functional; details: O157:H7 ATCC 43894, 24 h
[29] = test system: Lipid bilayer; assay: Binding affinity to phospholipid membrane model at pH 8.5 by surface plasmon resonance in presence of 140 mM NaCl

CCCCCCCCCCCC(=O)N[C@@H](CCCCN)C(=O)NCCCCCCCC(=O)N[C@@H](CCCCN)C(=O)NCCCCCCCC(=O)N[C@@H](CCCCN)C(=O)NCCCCCCCC(=O)N[C@@H](CCCCN)C(=O)NCCCCCCCC(=O)N[C@@H](CCCCN)C(=O)NCCCCCCCC(=O)N[C@@H](CCCCN)C(=O)NCCCCCCCC(=O)N[C@@H](CCCCN)C(=O)NCCCCCCCC(=O)N[C@@H](CCCCN)C(N)=O
MIC [1]: 50 µM (≈ 111 µg/mL)
MIC [2]: 3.1 µM
MIC [3]: 0.8 µM
MIC [4]: 3.1 µM
inhibition (INH) [5]: 99%
MIC [6]: 3.1 µM (≈ 6.86 µg/mL)
MIC [7]: 0.2 µM
MIC [8]: 0.05 µM
MIC [9]: > 50 µM
MIC [10]: 3.1 µM (≈ 6.86 µg/mL)
Ratio [11]: 16
MIC [12]: 6.3 µM
MIC [13]: 1.6 µM (≈ 3.54 µg/mL)
MIC [14]: 6.3 µM (≈ 13.9 µg/mL)
MIC [15]: 6.3 µM
MIC [16]: 12.5 µM
MIC [17]: 50 µM (≈ 111 µg/mL)
MIC [18]: 1.6 µM
MIC [19]: 6.3 µM
MIC [20]: 25 µM
MIC [21]: 1.6 µM (≈ 3.54 µg/mL)
MIC [22]: 12.5 µM
MIC [23]: 0.8 µM (≈ 1.77 µg/mL)
MIC [24]: 3.1 µM
MIC [25]: 12.5 µM
MIC [26]: 1.6 µM (≈ 3.54 µg/mL)
MIC [27]: 3.1 µM (≈ 6.86 µg/mL)
MIC [28]: 3.1 µM (≈ 6.86 µg/mL)
Activity [29]: Active
